One experiment has as its target CDK2/Cyclin E1 (Homo sapiens (Human), UniProt P24941). Briefly: biochemical. Particulars: CDK2_Ki (nM), phosphorylated CDK2/Cyclin E1, 150 μM ATP, Morrison tight-binding fit.
In a further experiment the target is CDK6/Cyclin D1 (Homo sapiens (Human), UniProt Q00534). Briefly: biochemical. Particulars: CDK6_Ki (nM), non-phosphorylated CDK6/Cyclin D1, 2 mM ATP, Morrison fit.

In US10233188B2, “CDK2/4/6 inhibitors” (priority 2016, dated 2019) one finds Ki data, which are given here for 17 molecules.

Sequence of CDK6/Cyclin D1 (Q00534 whole entry): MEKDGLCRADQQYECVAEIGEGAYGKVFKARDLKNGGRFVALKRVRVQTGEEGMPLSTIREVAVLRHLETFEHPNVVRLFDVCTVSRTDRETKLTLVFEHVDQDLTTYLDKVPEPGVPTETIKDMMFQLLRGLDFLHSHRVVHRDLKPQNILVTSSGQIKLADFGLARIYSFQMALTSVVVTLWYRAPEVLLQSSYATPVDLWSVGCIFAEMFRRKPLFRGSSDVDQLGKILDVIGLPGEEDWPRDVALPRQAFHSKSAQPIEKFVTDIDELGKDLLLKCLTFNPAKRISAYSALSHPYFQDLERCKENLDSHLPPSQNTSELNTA
Sequence of CDK6/Cyclin D1 (P24385 whole entry partner): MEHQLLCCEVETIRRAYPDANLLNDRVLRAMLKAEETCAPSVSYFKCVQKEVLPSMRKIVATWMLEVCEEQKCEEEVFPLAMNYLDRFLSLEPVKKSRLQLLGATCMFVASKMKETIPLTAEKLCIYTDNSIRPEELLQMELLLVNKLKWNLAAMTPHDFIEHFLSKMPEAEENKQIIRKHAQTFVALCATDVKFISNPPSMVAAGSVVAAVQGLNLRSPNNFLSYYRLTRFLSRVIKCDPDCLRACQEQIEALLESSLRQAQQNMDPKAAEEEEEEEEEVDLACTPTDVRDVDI
Description for CDK2/Cyclin E1: The assay was initiated with the addition of ATP, following a fifteen minutes pre-incubation of enzyme and inhibitor at room temperature in the reaction mixture. The reaction was stopped after 45 minutes at room temperature by the addition of 50 μL of 80 mM EDTA, pH 7.5.

A word on the Ki: it is the dissociation constant of the complex between target and ligand, obtained from inhibition or displacement. Read a low Ki as a stronger hold on the target. Consider `CS(=O)(=O)N1CCC(Nc2ncc3cc(Cl)c(=O)n([C@H]4CCC[C@H](O)C4)c3n2)CC1` (single isomer, unassigned) [Example 35, (−)-6-chloro-8-[(1R*,3R*)-3-hydroxycyclohexyl]-2-{[1-(methylsulfonyl)piperidin-4-yl]amino}pyrido[2,3-d]pyrimidin-7(8H)-one], for which the results for the Ki at CDK2/Cyclin E1 and on CDK6/Cyclin D1 were 19.2 nM and 7.82 nM, respectively.

As to `CS(=O)(=O)N1CCC(Nc2ncc3ccc(=O)n([C@H]4CC[C@H](O)C4)c3n2)CC1` (single isomer, unassigned) [Example 53, (+)-8-[(1R*,3R*)-3-hydroxycyclopentyl]-2-{[1-(methylsulfonyl)piperidin-4-yl]amino}pyrido[2,3-d]pyrimidin-7(8H)-one], the Ki came to 1.09 nM at CDK2/Cyclin E1 and 3.79 nM at CDK6/Cyclin D1.

In the case of `CNS(=O)(=O)N1CCC(Nc2ncc3ccc(=O)n([C@@H]4CCC[C@@]4(C)O)c3n2)CC1` (single isomer, unassigned) [Example 56, (−)-4-({8-[(1R*,2R*)-2-hydroxy-2-methylcyclopentyl]-7-oxo-7,8-dihydropyrido[2,3-d]pyrimidin-2-yl}amino)-N-methylpiperidine-1-sulfonamide], the Ki on CDK2/Cyclin E1 was 0.28 nM; at CDK6/Cyclin D1, 1.77 nM.

With `C[C@@]1(O)CCC[C@H]1n1c(=O)ccc2cnc(NC3CCN(S(=O)(=O)CF)CC3)nc21` (single isomer, unassigned) [Example 58, (−)-2-({1-[(fluoromethyl)sulfonyl]piperidin-4-yl}amino)-8-[(1R*,2R*)-2-hydroxy-2-methylcyclopentyl]pyrido[2,3-d]pyrimidin-7(8H)-one], the Ki at CDK2/Cyclin E1 turned out to be 0.27 nM; at CDK6/Cyclin D1, 0.49 nM.

Turning to `C[C@]1(O)CCC[C@@H]1n1c(=O)ccc2cnc(NC3CCN(S(=O)(=O)CF)CC3)nc21` (single isomer, unassigned) [Example 59, (+)-2-({1-[(fluoromethyl)sulfonyl]piperidin-4-yl}amino)-8-[(1R*,2R*)-2-hydroxy-2-methylcyclopentyl]pyrido[2,3-d]pyrimidin-7(8H)-one], the Ki was determined as 4.13 nM at CDK2/Cyclin E1 and 3.37 nM at CDK6/Cyclin D1.

Take `COC(C)(C)CNS(=O)(=O)N1CCC(Nc2ncc3ccc(=O)n([C@@H]4CCC[C@@]4(C)O)c3n2)CC1` (single isomer, unassigned) [Example 60, (−)-4-({8-[(1R*,2R*)-2-hydroxy-2-methylcyclopentyl]-7-oxo-7,8-dihydropyrido[2,3-d]pyrimidin-2-yl}amino)-N-(2-methoxy-2-methylpropyl)piperidine-1-sulfonamide]: the Ki on CDK2/Cyclin E1 is 0.48 nM; on CDK6/Cyclin D1, 3.18 nM.

Take `COC(C)(C)CNS(=O)(=O)N1CCC(Nc2ncc3ccc(=O)n([C@H]4CCC[C@]4(C)O)c3n2)CC1` (single isomer, unassigned) [Example 61, (+)-4-({8-[(1R*,2R*)-2-hydroxy-2-methylcyclopentyl]-7-oxo-7,8-dihydropyrido[2,3-d]pyrimidin-2-yl}amino)-N-(2-methoxy-2-methylpropyl)piperidine-1-sulfonamide]: the figures for the Ki at CDK2/Cyclin E1 and on CDK6/Cyclin D1 were 4.55 nM and 19.7 nM, respectively.

Consider `CC(F)(F)CNS(=O)(=O)N1CCC(Nc2ncc3ccc(=O)n([C@@H]4CCC[C@@]4(C)O)c3n2)CC1` (single isomer, unassigned) [Example 66, (−)-N-(2,2-difluoropropyl)-4-({8-[(1R*,2R*)-2-hydroxy-2-methylcyclopentyl]-7-oxo-7,8-dihydropyrido[2,3-d]pyrimidin-2-yl}amino)piperidine-1-sulfonamide], for which the Ki came out at 0.21 nM on CDK2/Cyclin E1 and 2.47 nM on CDK6/Cyclin D1.

For `CC(F)(F)CNS(=O)(=O)N1CCC(Nc2ncc3ccc(=O)n([C@H]4CCC[C@]4(C)O)c3n2)CC1` (single isomer, unassigned) [Example 67, (+)-N-(2,2-difluoropropyl)-4-({8-[(1R*,2R*)-2-hydroxy-2-methylcyclopentyl]-7-oxo-7,8-dihydropyrido[2,3-d]pyrimidin-2-yl}amino)piperidine-1-sulfonamide], the figures for the Ki on CDK2/Cyclin E1 and on CDK6/Cyclin D1 were 4.05 nM and 21.6 nM, respectively.

Consider `C[C@@]1(O)CCC[C@H]1n1c(=O)ccc2cnc(NC3CCN(S(=O)(=O)NC4CCOCC4)CC3)nc21` (single isomer, unassigned) [Example 68, (−)-4-({8-[(1R*,2R*)-2-hydroxy-2-methylcyclopentyl]-7-oxo-7,8-dihydropyrido[2,3-d]pyrimidin-2-yl}amino)-N-(tetrahydro-2H-pyran-4-yl)piperidine-1-sulfonamide], for which the Ki on CDK2/Cyclin E1 was 0.41 nM; on CDK6/Cyclin D1, 3.23 nM.

With `C[C@]1(O)CCC[C@@H]1n1c(=O)ccc2cnc(NC3CCN(S(=O)(=O)NC4CCOCC4)CC3)nc21` (single isomer, unassigned) [Example 69, (+)-4-({8-[(1R*,2R*)-2-hydroxy-2-methylcyclopentyl]-7-oxo-7,8-dihydropyrido[2,3-d]pyrimidin-2-yl}amino)-N-(tetrahydro-2H-pyran-4-yl)piperidine-1-sulfonamide], the Ki is 4.48 nM at CDK2/Cyclin E1 and 22.2 nM at CDK6/Cyclin D1.

On to `C[C@@]1(O)CCC[C@H]1n1c(=O)ccc2cnc(NC3CCN(S(=O)(=O)C4CCS(=O)(=O)C4)CC3)nc21` (single isomer, unassigned) [Example 70], for which the Ki came to 0.35 nM at CDK2/Cyclin E1 and 0.83 nM on CDK6/Cyclin D1.

In the case of `COCCS(=O)(=O)N1CCC(Nc2ncc3ccc(=O)n([C@@H]4CCCC4(C)O)c3n2)CC1` (single isomer, unassigned) [Example 72, (−)-8-[(1R*,2R*)-2-hydroxy-2-methylcyclopentyl]-2-({1-[(2-methoxyethyl)sulfonyl]piperidin-4-yl}amino)pyrido[2,3-d]pyrimidin-7(8H)-one], the values for the Ki on CDK2/Cyclin E1 and on CDK6/Cyclin D1 were 0.42 nM and 1.09 nM, respectively.

On to `COCCS(=O)(=O)N1CCC(Nc2ncc3ccc(=O)n([C@H]4CCC[C@]4(C)O)c3n2)CC1` (single isomer, unassigned) [Example 73, (+)-8-[(1R*,2R*)-2-hydroxy-2-methylcyclopentyl]-2-({1-[(2-methoxyethyl)sulfonyl]piperidin-4-yl}amino)pyrido[2,3-d]pyrimidin-7(8H)-one], for which the Ki at CDK2/Cyclin E1 amounted to 5.03 nM; on CDK6/Cyclin D1, 8.95 nM.

`C[C@@]1(O)CCC[C@H]1n1c(=O)ccc2cnc(NC3CCN(S(=O)(=O)C4CC4)CC3)nc21` (single isomer, unassigned) [Example 74, (−)-2-{[1-(cyclopropylsulfonyl)piperidin-4-yl]amino}-8-[(1R*,2R*)-2-hydroxy-2-methylcyclopentyl]pyrido[2,3-d]pyrimidin-7(8H)-one]: the Ki at CDK2/Cyclin E1 amounted to 0.2 nM; on CDK6/Cyclin D1 it was 1.01 nM.

Regarding `C[C@]1(O)CCC[C@@H]1n1c(=O)ccc2cnc(NC3CCN(S(=O)(=O)C4CC4)CC3)nc21` (single isomer, unassigned) [Example 75, (+)-2-{[1-(cyclopropylsulfonyl)piperidin-4-yl]amino}-8-[(1R*,2R*)-2-hydroxy-2-methylcyclopentyl]pyrido[2,3-d]pyrimidin-7(8H)-one], the values for the Ki on CDK2/Cyclin E1 and at CDK6/Cyclin D1 were 3.85 nM and 4.96 nM, respectively.

Take `CCS(=O)(=O)N1CCC(Nc2ncc3ccc(=O)n([C@@H]4CCC[C@@]4(C)O)c3n2)CC1` (single isomer, unassigned) [Example 76, (−)-2-{[1-(ethylsulfonyl)piperidin-4-yl]amino}-8-[(1R*,2R*)-2-hydroxy-2-methylcyclopentyl]pyrido[2,3-d]pyrimidin-7(8H)-one]: the Ki on CDK2/Cyclin E1 was 0.21 nM; at CDK6/Cyclin D1, 1.24 nM.
